Data taken from PMC6274517, “Design, Synthesis and Structure-Activity Relationships of Novel Chalcone-1,2,3-triazole-azole Derivates as Antiproliferative Agents” (Molecules, 2016).
In brackets after ≈: the same amount, converted by molar mass. Where two headings read alike, the source gives them in different places.

Experiments:
MCF-7 = conditions: cited from earlier work
K562 cells = test system: K562 cells; design: method as in PMID 19837593; conditions: cited from earlier work
SMMC-7721 = test system: SMMC-7721; design: method as in PMID 21345546; conditions: cited from earlier work
EC-109 = test: MTT antiproliferative assay, EC-109; format: cell-based, human; conditions: mean ± SD of three experiments
Description: (§1) In totally, a series of novel chalcone-1,2,3-triazole-azole derivatives were successfully synthesized, and their structures characterized by ^1H-NMR, ^13C-NMR, HRMS. Their in vitro antiproliferative activities were then tested, using a MTT assay, against three selected cancer cell lines (SK-N-SH, EC-109 and MGC-803) and compared with the well-known anticancer drug 5-fluorouracil.
(§2) All synthesized compounds were evaluated for their anticancer activity against three cancer cell lines, MGC-803 (human gastric cancer cell line), SK-N-SH (human neuroendocrine cancer cell line), and […] (human esophageal cancer cell line) using MTT assay method and compared with the well-known anticancer drug 5-fluorouracil.

SK-N-SH = test: MTT antiproliferative assay, SK-N-SH; format: cell-based, human; conditions: 72 h exposure, mean ± SD of three experiments
Description: as §1, §2

MGC-803 = test: MTT antiproliferative assay, MGC-803; format: cell-based, human; conditions: mean ± SD of three experiments
Description: as §1, §2

GES-1 = test: Cytotoxicity against normal GES-1 cells; format: cell-based, human; conditions: for IC50: normal human gastric epithelial cell line, 72 h exposure, mean ± SD of three experiments; for selectivity between cancer and normal cells: MGC-803 versus GES-1
Description: Compounds I-14 and I-21 were further examined for possible cytotoxicity against GES-1 (normal human gastric epithelial cell line).

[1] = test system: SK-N-SH, EC-109 and MGC-803; test: MTT antiproliferative assay, three cancer cell lines together; format: cell-based, human; conditions: range across EC-109, SK-N-SH, read-out: IC50 values, range over the three cancer cell lines
Description: as §1, §2

SK-N-SH cells = test: Apoptosis analysis with Hoechst-33258 staining; format: cell-based, human; conditions: SK-N-SH cells, 5, 10 and 20 μM; 24 h / 48 h (legend of Figure 5)
Description: To explore cytotoxicity of I-21 in SK-N-SH cells, cell apoptosis was investigated with Hoechst 33258 staining.
Figure 5 Apoptosis analysis with Hoechst-33258 staining after a 48 h treatment of I-21 in SK-N-SH cell line at 5 μM, 10 μM and 20 μM.

[2] = test system: Bcl-2 and Bax in SK-N-SH cells; test: Western blot of Bcl-2 and Bax; format: cell-based, human; conditions: 48 h treatment
Description: Antiproliferative agents that induce apoptosis in cancer cells are always preferred in antitumor drug discovery. Bcl-2 associated proteins have both anti-apoptotic and pro-apoptotic effects in vrious cancer cell lines. For the high potent cytotoxic activity against SK-N-SH cell line, compound I-21 was evaluated the level of Bcl-2 (apoptotic inhibitor) and Bax (apoptotic inducer). […] Further mechanism investigations are under way and will be reported in due course.
Figure 6 Expression of Bcl-2 and Bax in SK-N-SH cells after treatment by compound I-21 for 48 h.

[3] = Homo sapiens, ECa-109, 72 h exposure
[4] = Homo sapiens, MGC-803, 72 h exposure

Compound	IC50 (EC-109; [3]) [µM]	IC50 (SK-N-SH; Homo sapiens, SK-N-SH) [µM]	IC50 (MGC-803; [4]) [µM]	melting point [°C]	other results
O=C(/C=C/c1ccccc1)c1ccccc1 [Compound 1]					IC50 MCF-7 (MCF-7): 6.88 µg/mL (≈ 33 µM)
COc1ccc(C(=O)/C=C/c2cc(OC)c(OC)c(OC)c2)cc1OC [Compound 2]					IC50 (K562 cells): 1.1 µM
CN(C)CCN1C(=O)c2cccc3cc(-n4cc(-c5ccccc5)nn4)cc(c23)C1=O [Compound 3]					IC50 (MCF-7): 0.348 µM; IC50 (SMMC-7721): 0.258 µM
O=C(NCc1cn(Cc2cccc(Oc3ccccc3)c2)nn1)c1ccccn1 [Compound 4]					IC50 (MCF-7): 0.046 µM
O=c1[nH]cc(F)c(=O)[nH]1 [Compound 5-FU, 5-fluorouracil, reference compound]	10.3 ± 0.32	9.85 ± 0.76	7.14 ± 0.28		
O=C(/C=C/c1ccc(Cl)cc1)c1ccc(OCCCn2cc(CSC3=NCCS3)nn2)cc1 [Compound I-13, (E)-3-(4-Chlorophenyl)-1-(4-(3-(4-(((4,5-dihydrothiazol-2-yl)thio)methyl)-1H-1,2,3-triazol-1-yl)propoxy)phenyl)prop-2-en-1-one]	> 100	19.3 ± 0.47	37.2 ± 0.85	151 to 153	
COc1cc(/C=C/C(=O)c2ccc(OCCCn3cc(CSC4=NCCS4)nn3)cc2)cc(OC)c1OC [Compound I-14, (E)-1-(4-(3-(4-(((4,5-Dihydrothiazol-2-yl)thio)methyl)-1H-1,2,3-triazol-1-yl)propoxy)phenyl)-3-(3,4,5-trimethoxyphenyl)prop-2-en-1-one]	3.57 ± 0.22	5.87 ± 1.05	8.52 ± 0.56	169 to 171	IC50 (GES-1; GES1): > 64 µM; selectivity between cancer and normal cells (GES-1): good selectivity; IC50 ([1]; Homo sapiens): 3.57 to 8.52 µM
O=C(/C=C/c1cccnc1)c1ccc(OCCCn2cc(CSC3=NCCS3)nn2)cc1 [Compound I-15, (E)-1-(4-(3-(4-(((4,5-Dihydrothiazol-2-yl)thio)methyl)-1H-1,2,3-triazol-1-yl)propoxy)phenyl)-3-(pyridin-3-yl)prop-2-en-1-one]	42.36 ± 0.18	47.3 ± 1.57	63.8 ± 1.17	149 to 151	
O=C(/C=C/c1cccs1)c1ccc(OCCCn2cc(CSC3=NCCS3)nn2)cc1 [Compound I-16, (E)-1-(4-(3-(4-(((4,5-Dihydrothiazol-2-yl)thio)methyl)-1H-1,2,3-triazol-1-yl)propoxy)phenyl)-3-(thiophen-2-yl)prop-2-en-1-one]	19.3 ± 0.79	11.2 ± 0.26	8.69 ± 0.42	104 to 106	
O=C(/C=C/c1ccc(Cl)cc1)c1ccc(OCCCn2cc(CSc3nc4ccccc4s3)nn2)cc1 [Compound I-17]	9.54 ± 0.05	> 100	38.2 ± 0.58	172 to 174	
O=C(/C=C/c1cccnc1)c1ccc(OCCCn2cc(CSc3nc4ccccc4s3)nn2)cc1 [Compound I-18, (E)-1-(4-(3-(4-((Benzo[d]thiazol-2-ylthio)methyl)-1H-1,2,3-triazol-1-yl)propoxy)phenyl)-3-(pyridin-3-yl)prop-2-en-1-one]	24.6 ± 3.8	14.8 ± 0.72	6.24 ± 0.05	144 to 146	
O=C(/C=C/c1cccs1)c1ccc(OCCCn2cc(CSc3nc4ccccc4s3)nn2)cc1 [Compound I-19, (E)-1-(4-(3-(4-((Benzo[d]thiazol-2-ylthio)methyl)-1H-1,2,3-triazol-1-yl)propoxy)phenyl)-3-(thiophen-2-yl)prop-2-en-1-one]	38.8 ± 1.05	37.8 ± 0.91	24.4 ± 0.71		
O=C(/C=C/c1ccc(Cl)cc1)c1ccc(OCCCn2cc(CSc3nncs3)nn2)cc1 [Compound I-20, (E)-1-(4-(3-(4-(((1,3,4-Thiadiazol-2-yl)thio)methyl)-1H-1,2,3-triazol-1-yl)propoxy)phenyl)-3-(4-chlorophenyl)prop-2-en-1-one]	5.81 ± 0.21	3.75 ± 1.21	46.3 ± 1.64	143 to 145	
O=C(/C=C/c1cccnc1)c1ccc(OCCCn2cc(CSc3nncs3)nn2)cc1 [Compound I-22, (E)-1-(4-(3-(4-(((1,3,4-Thiadiazol-2-yl)thio)methyl)-1H-1,2,3-triazol-1-yl)propoxy)phenyl)-3-(pyridin-3-yl)prop-2-en-1-one]	14.6 ± 1.21	12.4 ± 0.44	4.45 ± 0.82	146 to 149	
O=C(/C=C/c1cccs1)c1ccc(OCCCn2cc(CSc3nncs3)nn2)cc1 [Compound I-23, (E)-1-(4-(3-(4-(((1,3,4-Thiadiazol-2-yl)thio)methyl)-1H-1,2,3-triazol-1-yl)propoxy)phenyl)-3-(thiophen-2-yl)prop-2-en-1-one]	57.2 ± 1.63	21 ± 1.81	15.1 ± 0.85		
Cn1nnnc1SCc1cn(CCCOc2ccc(C(=O)/C=C/c3ccc(Cl)cc3)cc2)nn1 [Compound I-24, (E)-3-(4-Chlorophenyl)-1-(4-(3-(4-(((1-methyl-1H-tetrazol-5-yl)thio)methyl)-1H-1,2,3-triazol-1-yl)propoxy)phenyl)prop-2-en-1-one]	24.9 ± 1.09	28.4 ± 1.59	50.1 ± 0.97	149 to 150	
COc1cc(/C=C/C(=O)c2ccc(OCCCn3cc(CSc4nnnn4C)nn3)cc2)cc(OC)c1OC [Compound I-25, (E)-1-(4-(3-(4-(((1-Methyl-1H-tetrazol-5-yl)thio)methyl)-1H-1,2,3-triazol-1-yl)propoxy)phenyl)-3-(3,4,5-trimethoxyphenyl)prop-2-en-1-one]	5.28 ± 0.56	6.98 ± 0.4	5.66 ± 0.55	105 to 107	
Cn1nnnc1SCc1cn(CCCOc2ccc(C(=O)/C=C/c3cccnc3)cc2)nn1 [Compound I-26, (E)-1-(4-(3-(4-(((1-Methyl-1H-tetrazol-5-yl)thio)methyl)-1H-1,2,3-triazol-1-yl)propoxy)phenyl)-3-(pyridin-3-yl)prop-2-en-1-one]	11.8 ± 0.74	4.49 ± 0.45	5.56 ± 0.45	151 to 153	
Cn1nnnc1SCc1cn(CCCOc2ccc(C(=O)/C=C/c3cccs3)cc2)nn1 [Compound I-27, (E)-1-(4-(3-(4-(((1-Methyl-1H-tetrazol-5-yl)thio)methyl)-1H-1,2,3-triazol-1-yl)propoxy)phenyl)-3-(thiophen-2-yl)prop-2-en-1-one]	> 100	29.3 ± 0.85	38.1 ± 0.91	129 to 130	
(E)-1-(4-(3-(4-(((1,3,4-Thiadiazol-2-yl)thio)methyl)-1H-1,2,3-triazol-1-yl)propoxy)phenyl)-3-(3,4,5-trimethoxyphenyl)prop-2-en-1-one [Compound I-21]					IC50 (EC-109; 72 h exposure): 10.4 ± 0.24 µM; IC50 (SK-N-SH): 1.52 ± 0.3 µM; IC50 (MGC-803; 72 h exposure): 4.26 ± 0.32 µM; selectivity between cancer and normal cells (GES-1): good selectivity; IC50 (GES-1): 43.7 ± 1.35 µM; apoptotic morphological changes (Hoechst 33258 staining) (SK-N-SH cells): characteristic apoptotic morphological changes; level of Bax [2]: increased the level of Bax; level of Bcl-2 [2]: reduced the level of Bcl-2; IC50 [1]: 1.52 to 10.4 µM
